Measurements published in patent US6943022B2, “Inhibition of apoptosis by the expression of antisense RNA of caspase-3” (Korea Advanced Institute of Science and Technology, priority 2001, dated 2005).

Assays:
[1] = tested on: recombinant CHO cells; assay type: cell-based
Procedure: The present inventors confirmed whether the expression of antisense RNA of caspase-3 could inhibit the NaBu-induced apoptosis. Particularly, control cells and B3 cells obtained in Example <1-1> were seeded at a concentration of 4×10^4 cells/ml in 6-well culture plates containing 5 ml of an alpha-minimum essential medium supplemented with 5% dialyzed fetal bovine serum and 0.32 μM of methotrexate. After three days of cultivation, the spent medium was replaced with fresh medium containing 0-5 mM of sodium butyrate. Cells were harvested periodically. Viable cells were distinguished from dead cells using the trypan blue dye exclusion method to determine cell viability. In addition, secreted humanized antibody concentration was measured by enzyme-linked immunosorbent assay (ELISA).

[2] = tested on: recombinant CHO cells; test: LDH activity in culture supernatant (degree of cell lysis) after sodium butyrate; assay type: cell-based; conditions: control cells, first two days after addition of 5 mM sodium butyrate
Text: The integrity of protein product is influenced by the degree of cell lysis because some proteolytic enzymes and glycosidases released from the cellular membrane ruptured-dead cells influence the molecular integrity of the product (Goldman, et al., 1997, Cytotechnology, 23, 103-111; Hansen, et al., 1997, Cytotechnology, 24, 227-234; Teige, et al., 1994, J. Biotechnol., 34, 101-105). The amount of lysed cells can be determined by measuring the amount of lactate dehydrogenase (LDH) released into the culture supernatant (Cruz, et al., 2000, Biotechnol. Lett., 22, 677-682). Thus, to determine the degree of cell lysis, the LDH activity in culture supernatant was measured daily after treatment with 5 mM of sodium butyrate.

SMILES: CCCC(=O)[O-].[Na+] [sodium butyrate]
- cytotoxic effect on the cell growth ([1]; 0-5 mM sodium butyrate, control and B3 CHO cells): dose-dependent
- cellular apoptosis ([1]; 5 mM sodium butyrate): induced
- viability of control cells ([1]; three days after treatment with 5 mM sodium butyrate, control cells (null pcDNA3.1-zeo(+))): under 50%
- LDH activity in culture supernatant [2]: increased rapidly
